For nine compounds, inhibition results are on record in ChEMBL document CHEMBL3045899, “New asperxanthone and asperbiphenyl from the marine fungus Aspergillus sp” (2009).

This experiment has as its system Tobacco mosaic virus. Briefly: Inhibitory activity against Tobacco mosaic virus (TMV) inoculated in Nicotiana tabacum L. cv.K326 leaf assessed as inhibition of virus multiplication at 0.2 mg/ml measured by leaf disk method (reference value: 0%). The class given is functional.

`CCCCCCCC/C=C/C=C/CCCCCCCCCCCCCC/C=C/C=C/CCCC(=O)OC(CO)CO`: the inhibition at 200 µg/mL was determined as 14.3%.

With `CCCCCCCCCCC/C=C/C=C/CCCC(=O)OCC(O)CO` (centres undefined), the inhibition at 200 µg/mL turned out to be 14.9%.

In the case of `CCCCCCCCCCCCCCCCCCCCCCCCCC/C=C/C=C/C=C/CCC(=O)OC(CO)CO`, the inhibition at 200 µg/mL was found to be 13.9%.

`Cc1c(O)c(-c2c(O)c(C)c3c(c2O)CO[C@H](C)[C@H]3C)c(O)c2c1[C@@H](C)[C@H](C)OC2` [ASPERBIPHENYL]: the inhibition at 200 µg/mL came out at 35.5%.

As to `CCCCCCC/C=C/C=C/CCCC(=O)OC(CO)CO`, the inhibition at 200 µg/mL turned out to be 14.2%.

For `CCCCCCCC/C=C/C=C/CCCCCCCCCCCCCC/C=C/C=C/CCCC(=O)OCC(O)CO` (centres undefined), the inhibition at 200 µg/mL came to 17.4%.

In the case of `CCCCCCCC/C=C/C=C/CCCCCCCCCCCCCCCCCCCCCC(=O)OC(CO)CO`, the inhibition at 200 µg/mL worked out at 16.3%.

On to `COc1cc2oc3cccc(O)c3c(=O)c2c2c1[C@@H]1C=CO[C@@H]1O2` [ASPERXANTHONE], for which the inhibition at 200 µg/mL was determined as 62.9%.

For the compound `CCCCCCCCCC/C=C/C=C/CCCC(=O)OCC(O)CO` (centres undefined), the inhibition at 200 µg/mL was 12.5%.

By inhibition is commonly meant the drop in the measured response relative to a control, in per cent.
